The structures appear in SMILES notation.

Coagulation factor X, sequence (P00742 41-179 limits assumed): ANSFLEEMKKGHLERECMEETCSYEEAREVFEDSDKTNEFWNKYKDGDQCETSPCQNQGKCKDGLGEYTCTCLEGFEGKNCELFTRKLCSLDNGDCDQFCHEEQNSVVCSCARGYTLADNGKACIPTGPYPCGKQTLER
Coagulation factor X, sequence (P00742 235-488 limits assumed): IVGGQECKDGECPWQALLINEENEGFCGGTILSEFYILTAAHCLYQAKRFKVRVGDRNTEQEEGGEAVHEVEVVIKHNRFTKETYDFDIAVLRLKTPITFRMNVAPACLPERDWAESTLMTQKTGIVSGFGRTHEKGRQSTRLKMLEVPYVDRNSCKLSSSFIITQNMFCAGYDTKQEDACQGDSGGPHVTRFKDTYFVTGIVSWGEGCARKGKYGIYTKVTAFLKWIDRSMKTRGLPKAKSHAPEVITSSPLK

This assay addresses Coagulation factor X (Homo sapiens, UniProt P00742). As to the kind of experiment: Inhibition of human factor 10a using […] as substrate by spectrophotometric method.
A word on the Ki: it is a dissociation constant, usually derived from enzyme kinetics or from competition with a known ligand. A low value points to tighter binding. Regarding `C[N+](C)(C)CCCN1C(=O)[C@@H]2[C@H](C1=O)[C@H](c1cc(-c3ccc(Cl)s3)on1)N1CCC[C@@H]21` (racemic), the affinity, expressed as Ki, was 9 nM.

Compound `CNCCCN1C(=O)[C@@H]2[C@H](C1=O)[C@H](c1cc(-c3ccc(Cl)s3)on1)N1CCC[C@@H]21` (racemic) gave a Ki of 911 nM. This Ki lies about 100-fold higher than the previous one. Take `CN(C)CCCN1C(=O)[C@@H]2[C@H](C1=O)[C@H](c1cc(-c3ccc(Cl)s3)on1)N1CCC[C@@H]21` (racemic): the Ki turned out to be 56 nM. Then `NCCCN1C(=O)[C@@H]2[C@H](C1=O)[C@H](c1cc(-c3ccc(Cl)s3)on1)N1CCC[C@@H]21` (racemic), with 9800 nM. Then `CC(C)(C)CCCN1C(=O)[C@@H]2[C@H](C1=O)[C@H](c1cc(-c3ccc(Cl)s3)on1)N1CCC[C@@H]21` (racemic), with 550 nM.

These data come from ChEMBL document CHEMBL4261565, “A systematic analysis of atomic protein-ligand interactions in the PDB” (Medchemcomm, 2017).
